Assay results as given in paper PMC5862592, “CDK8/19 inhibition induces premature G1/S transition and ATR-dependent cell death in prostate cancer cells” (Oncotarget, 2018).
Where two headings read alike, the source gives them in different places.

Columns and labels:
Experiment in all cases: biochemical
Set-up in all cases: KINOMEscan active site-directed competition binding assay (DiscoveRx), 456 kinases, per cent of control at 300 nM
Conditions in all cases: read-out: Percent of Control (%)
LYN = LYN (Homo sapiens, UniProt P07948)
Procedure, shortened: (§1)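 Active site-directed competition binding (KINOMEscan) across a 456-kinase panel, compounds tested at 300 nmol/L.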

[1] = target: EGFR(L747-E749del, A750P) (Homo sapiens, UniProt P00533, A750P/DEL747-749)
Procedure, shortened: as §1

PFPK5(P.falciparum) = target: T1, PFPK5(P.falciparum) (Plasmodium falciparum, UniProt P61075)
T1 construct: gene MAL13P1.279
Procedure, shortened: as §1

NEK7 = NEK7 (Homo sapiens, UniProt Q8TDX7)
Procedure, shortened: as §1

PRP4 = target: T2, PRP4 (Homo sapiens, UniProt Q13523)
T2 construct: gene PRPF4B
Procedure, shortened: as §1

PAK4 = PAK4 (Homo sapiens, UniProt O96013)
Procedure, shortened: as §1

MINK = target: T3, MINK (Homo sapiens, UniProt Q8N4C8)
T3 construct: gene MINK1
Procedure, shortened: as §1

PIK3CD = PIK3CD (Homo sapiens, UniProt O00329)
Procedure, shortened: as §1

MAK = MAK (Homo sapiens, UniProt P20794)
Procedure, shortened: as §1

GRK4 = GRK4 (Homo sapiens, UniProt P32298)
Procedure, shortened: as §1

YSK1 = target: T4, YSK1 (Homo sapiens, UniProt O00506)
T4 construct: gene STK25
Procedure, shortened: as §1

VRK2 = VRK2 (Homo sapiens, UniProt Q86Y07)
Procedure, shortened: as §1

PIM2 = PIM2 (Homo sapiens, UniProt Q9P1W9)
Procedure, shortened: as §1

MST1R = MST1R (Homo sapiens, UniProt Q04912)
Procedure, shortened: as §1

KIT(V559D,T670I) = KIT(V559D,T670I) (Homo sapiens, UniProt P10721, T670I/V559D)
Procedure, shortened: as §1

CDK2 = CDK2 (Homo sapiens, UniProt P24941)
Procedure, shortened: as §1

SRPK1 = SRPK1 (Homo sapiens, UniProt Q96SB4)
Procedure, shortened: as §1

CLK3 = CLK3 (Homo sapiens, UniProt P49761)
Procedure, shortened: as §1

CSNK2A1 = CSNK2A1 (Homo sapiens, UniProt P68400)
Procedure, shortened: as §1

CSNK1G1 = CSNK1G1 (Homo sapiens, UniProt Q9HCP0)
Procedure, shortened: as §1

MELK = MELK (Homo sapiens, UniProt Q14680)
Procedure, shortened: as §1

MEK5 = target: T5, MEK5 (Homo sapiens, UniProt Q13163)
T5 construct: gene MAP2K5
Procedure, shortened: as §1

T5 sequence (Q13163 whole entry): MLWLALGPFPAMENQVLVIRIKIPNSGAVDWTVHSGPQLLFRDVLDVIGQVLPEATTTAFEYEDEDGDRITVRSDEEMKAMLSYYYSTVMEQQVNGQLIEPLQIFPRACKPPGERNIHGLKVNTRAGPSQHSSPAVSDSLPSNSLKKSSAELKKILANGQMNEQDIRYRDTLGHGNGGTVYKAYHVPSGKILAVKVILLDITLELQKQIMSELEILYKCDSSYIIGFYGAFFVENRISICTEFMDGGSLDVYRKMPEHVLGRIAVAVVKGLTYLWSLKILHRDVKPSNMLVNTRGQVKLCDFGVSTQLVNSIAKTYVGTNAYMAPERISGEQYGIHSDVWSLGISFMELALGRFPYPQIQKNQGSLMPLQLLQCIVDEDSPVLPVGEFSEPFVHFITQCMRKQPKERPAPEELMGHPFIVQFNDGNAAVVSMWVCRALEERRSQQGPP
T1 sequence (P61075 whole entry): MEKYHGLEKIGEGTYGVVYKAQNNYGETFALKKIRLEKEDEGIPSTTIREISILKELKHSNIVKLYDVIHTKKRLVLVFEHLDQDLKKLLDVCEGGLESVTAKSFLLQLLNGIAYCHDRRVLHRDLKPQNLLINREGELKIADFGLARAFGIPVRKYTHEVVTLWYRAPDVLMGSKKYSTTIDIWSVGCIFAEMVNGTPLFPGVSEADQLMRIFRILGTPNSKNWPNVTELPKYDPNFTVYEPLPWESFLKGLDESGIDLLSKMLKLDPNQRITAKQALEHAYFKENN
T4 sequence (O00506 whole entry): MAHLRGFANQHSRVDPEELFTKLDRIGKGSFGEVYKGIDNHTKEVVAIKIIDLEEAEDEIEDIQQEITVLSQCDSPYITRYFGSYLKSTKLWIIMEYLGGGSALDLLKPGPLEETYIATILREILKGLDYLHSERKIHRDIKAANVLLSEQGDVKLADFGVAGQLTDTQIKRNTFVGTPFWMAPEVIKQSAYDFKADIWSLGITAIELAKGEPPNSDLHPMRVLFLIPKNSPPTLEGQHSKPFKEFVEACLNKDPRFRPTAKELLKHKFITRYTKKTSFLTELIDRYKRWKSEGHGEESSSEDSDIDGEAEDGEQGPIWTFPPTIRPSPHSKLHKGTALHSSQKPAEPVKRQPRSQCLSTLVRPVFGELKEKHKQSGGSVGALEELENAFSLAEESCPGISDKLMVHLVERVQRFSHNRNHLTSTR
Chain of CLK3 (P49761 whole entry): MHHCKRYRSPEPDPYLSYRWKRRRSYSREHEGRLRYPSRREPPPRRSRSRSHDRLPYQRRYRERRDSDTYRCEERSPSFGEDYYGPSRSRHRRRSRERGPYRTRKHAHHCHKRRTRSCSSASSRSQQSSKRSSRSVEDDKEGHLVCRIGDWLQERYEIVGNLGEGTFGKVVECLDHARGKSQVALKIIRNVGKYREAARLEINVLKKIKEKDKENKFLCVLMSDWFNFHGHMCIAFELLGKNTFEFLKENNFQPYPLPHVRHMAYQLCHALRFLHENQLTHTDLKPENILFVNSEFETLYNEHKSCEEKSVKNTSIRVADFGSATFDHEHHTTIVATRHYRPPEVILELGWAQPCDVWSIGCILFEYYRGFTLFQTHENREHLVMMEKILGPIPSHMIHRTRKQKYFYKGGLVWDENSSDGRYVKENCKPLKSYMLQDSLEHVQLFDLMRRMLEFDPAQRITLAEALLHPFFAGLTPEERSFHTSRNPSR
Chain of NEK7 (Q8TDX7 whole entry): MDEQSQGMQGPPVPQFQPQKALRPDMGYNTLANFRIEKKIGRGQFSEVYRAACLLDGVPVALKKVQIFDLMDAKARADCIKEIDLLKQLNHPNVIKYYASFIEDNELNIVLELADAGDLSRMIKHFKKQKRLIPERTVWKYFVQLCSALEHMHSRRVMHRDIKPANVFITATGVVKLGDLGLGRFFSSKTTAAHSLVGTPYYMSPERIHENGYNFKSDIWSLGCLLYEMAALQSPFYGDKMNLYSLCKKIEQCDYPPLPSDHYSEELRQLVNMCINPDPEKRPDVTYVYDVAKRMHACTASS
Chain of KIT(V559D,T670I) (P10721 whole entry V559D/T670I): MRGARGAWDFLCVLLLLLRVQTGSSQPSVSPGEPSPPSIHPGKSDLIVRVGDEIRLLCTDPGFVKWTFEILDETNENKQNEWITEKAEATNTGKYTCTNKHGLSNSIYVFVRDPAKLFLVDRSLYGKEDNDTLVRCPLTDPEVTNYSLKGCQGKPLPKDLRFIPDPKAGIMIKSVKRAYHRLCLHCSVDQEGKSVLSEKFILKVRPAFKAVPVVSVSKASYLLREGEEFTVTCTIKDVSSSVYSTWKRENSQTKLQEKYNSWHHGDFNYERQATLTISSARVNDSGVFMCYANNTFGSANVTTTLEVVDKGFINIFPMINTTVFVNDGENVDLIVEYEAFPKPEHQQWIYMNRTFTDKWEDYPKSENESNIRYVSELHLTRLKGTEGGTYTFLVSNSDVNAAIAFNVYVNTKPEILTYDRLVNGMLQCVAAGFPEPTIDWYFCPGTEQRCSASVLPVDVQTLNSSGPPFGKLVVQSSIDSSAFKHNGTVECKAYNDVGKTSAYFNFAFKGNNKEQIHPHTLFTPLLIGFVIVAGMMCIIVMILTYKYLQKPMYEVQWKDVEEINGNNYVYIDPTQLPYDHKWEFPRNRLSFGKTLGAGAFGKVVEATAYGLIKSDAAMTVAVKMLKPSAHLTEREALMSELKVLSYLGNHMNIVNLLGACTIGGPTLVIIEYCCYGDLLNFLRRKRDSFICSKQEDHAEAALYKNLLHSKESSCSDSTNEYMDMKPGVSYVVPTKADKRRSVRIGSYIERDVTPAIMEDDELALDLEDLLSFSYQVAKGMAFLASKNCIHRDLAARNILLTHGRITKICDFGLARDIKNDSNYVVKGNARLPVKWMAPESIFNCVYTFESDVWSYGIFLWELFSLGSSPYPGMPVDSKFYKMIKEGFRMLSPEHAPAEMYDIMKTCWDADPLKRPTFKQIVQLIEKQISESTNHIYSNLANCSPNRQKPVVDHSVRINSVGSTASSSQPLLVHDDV
Chain of MAK (P20794 whole entry): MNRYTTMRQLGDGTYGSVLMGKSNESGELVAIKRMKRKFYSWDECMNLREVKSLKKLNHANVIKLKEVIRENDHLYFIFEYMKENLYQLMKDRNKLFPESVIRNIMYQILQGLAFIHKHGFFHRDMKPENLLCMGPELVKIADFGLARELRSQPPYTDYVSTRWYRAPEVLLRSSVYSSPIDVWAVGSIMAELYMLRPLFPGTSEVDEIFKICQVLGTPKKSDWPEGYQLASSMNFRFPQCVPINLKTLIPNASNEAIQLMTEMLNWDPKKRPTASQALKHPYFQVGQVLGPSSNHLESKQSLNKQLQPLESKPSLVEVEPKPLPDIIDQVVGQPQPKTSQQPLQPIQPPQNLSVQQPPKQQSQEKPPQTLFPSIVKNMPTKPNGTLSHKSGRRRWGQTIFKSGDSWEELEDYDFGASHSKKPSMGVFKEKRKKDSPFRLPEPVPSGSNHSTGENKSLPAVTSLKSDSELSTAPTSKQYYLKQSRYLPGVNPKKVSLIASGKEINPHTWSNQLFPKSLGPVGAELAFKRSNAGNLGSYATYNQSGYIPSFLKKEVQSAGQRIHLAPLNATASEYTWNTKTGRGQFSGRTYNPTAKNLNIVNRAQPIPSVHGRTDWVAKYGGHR
Chain of GRK4 (P32298 whole entry): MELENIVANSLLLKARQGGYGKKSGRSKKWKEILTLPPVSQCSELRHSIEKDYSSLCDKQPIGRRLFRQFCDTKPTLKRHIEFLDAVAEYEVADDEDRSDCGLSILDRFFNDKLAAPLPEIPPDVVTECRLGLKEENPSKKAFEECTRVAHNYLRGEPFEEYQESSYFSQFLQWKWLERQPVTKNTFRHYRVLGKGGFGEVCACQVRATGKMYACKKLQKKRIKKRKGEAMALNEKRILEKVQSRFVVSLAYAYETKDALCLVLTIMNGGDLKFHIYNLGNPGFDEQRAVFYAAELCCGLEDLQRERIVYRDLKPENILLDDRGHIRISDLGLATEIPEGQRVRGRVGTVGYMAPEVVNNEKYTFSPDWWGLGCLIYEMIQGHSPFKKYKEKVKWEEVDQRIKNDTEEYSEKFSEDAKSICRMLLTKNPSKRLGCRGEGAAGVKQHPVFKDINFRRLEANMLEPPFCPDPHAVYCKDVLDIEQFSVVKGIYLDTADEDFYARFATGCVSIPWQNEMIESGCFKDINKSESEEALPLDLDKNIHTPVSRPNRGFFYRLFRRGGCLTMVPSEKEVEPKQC
Chain of PAK4 (O96013 whole entry): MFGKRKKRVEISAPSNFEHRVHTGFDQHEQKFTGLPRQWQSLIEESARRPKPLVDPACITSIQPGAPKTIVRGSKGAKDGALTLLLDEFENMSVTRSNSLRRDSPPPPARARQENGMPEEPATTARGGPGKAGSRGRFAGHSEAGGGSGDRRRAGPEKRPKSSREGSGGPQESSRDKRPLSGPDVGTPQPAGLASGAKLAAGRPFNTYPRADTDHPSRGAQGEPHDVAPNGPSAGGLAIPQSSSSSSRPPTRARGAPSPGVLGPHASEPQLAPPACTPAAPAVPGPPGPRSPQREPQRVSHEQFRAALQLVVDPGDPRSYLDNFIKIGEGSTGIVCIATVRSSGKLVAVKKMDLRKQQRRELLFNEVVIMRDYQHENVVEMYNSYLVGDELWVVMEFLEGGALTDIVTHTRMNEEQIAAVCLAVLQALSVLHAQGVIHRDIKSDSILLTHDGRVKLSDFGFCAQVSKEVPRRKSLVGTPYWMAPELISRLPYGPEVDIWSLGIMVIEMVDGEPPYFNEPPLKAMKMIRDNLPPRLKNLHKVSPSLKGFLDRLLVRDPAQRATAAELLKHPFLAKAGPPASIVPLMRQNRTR

In the case of O=C(/C=C/c1cnccc1-c1ccc(F)cc1)Nc1ccc(CCc2nnco2)cc1 [T-418, (2E)-3-(4-(4-fluorophenyl)pyridin-3-yl)-N-(4-(2-(1,3,4-oxadiazol-2-yl)ethyl)phenyl)acrylamide], the remaining binding at 0.3 µM (LYN; sheet T-418) is reported as 100%, the remaining binding at 0.3 µM ([1]; sheet T-418) is reported as 58% and the remaining binding at 0.3 µM (PFPK5(P.falciparum); sheet T-418) is reported as 76%. It also gave a remaining binding at 0.3 µM (NEK7; sheet T-418) of 100%, a remaining binding at 0.3 µM (PRP4; sheet T-418) of 82% and a remaining binding at 0.3 µM (PAK4; sheet T-418) of 99%. The remaining binding at 0.3 µM (MINK; sheet T-418) was 80%, the remaining binding at 0.3 µM (PIK3CD; sheet T-418) was 99% and the remaining binding at 0.3 µM (MAK; sheet T-418) was 100%. The remaining binding at 0.3 µM (GRK4; sheet T-418) was 100%, the remaining binding at 0.3 µM (YSK1; sheet T-418) was 97% and the remaining binding at 0.3 µM (VRK2; sheet T-418) was 100%. The remaining binding at 0.3 µM (PIM2; sheet T-418) was 89%, the remaining binding at 0.3 µM (MST1R; sheet T-418) was 100% and the remaining binding at 0.3 µM (KIT(V559D,T670I); sheet T-418) was 77%. It also gave a remaining binding at 0.3 µM (CDK2; sheet T-418) of 92%, a remaining binding at 0.3 µM (SRPK1; sheet T-418) of 61% and a remaining binding at 0.3 µM (CLK3; sheet T-418) of 92%. The remaining binding at 0.3 µM (CSNK2A1; sheet T-418) was 84%, the remaining binding at 0.3 µM (CSNK1G1; sheet T-418) was 97% and the remaining binding at 0.3 µM (MELK; sheet T-418) was 100%. For the same compound, the remaining binding at 0.3 µM (MEK5; sheet T-418) was 100%.
Cc1ncccc1Oc1sc(C(N)=O)c2c1-c1c(cnn1C)CC2 [T-474, 1-methyl-8-((2-methylpyridin-3-yl)oxy)-4,5-dihydro-1H-thieno[3,4-g]indazole-6-carboxamide] was tested, and the remaining binding at 0.3 µM (LYN) was 100%, the remaining binding at 0.3 µM [1] was 68% and the remaining binding at 0.3 µM (PFPK5(P.falciparum)) was 95%. It also gave a remaining binding at 0.3 µM (NEK7) of 100%, a remaining binding at 0.3 µM (PRP4) of 89% and a remaining binding at 0.3 µM (PAK4) of 100%. For the same compound, the remaining binding at 0.3 µM (MINK) was 100%, the remaining binding at 0.3 µM (PIK3CD) was 88% and the remaining binding at 0.3 µM (MAK) was 98%. The remaining binding at 0.3 µM (GRK4) was 100%, the remaining binding at 0.3 µM (YSK1) was 94% and the remaining binding at 0.3 µM (VRK2) was 100%. The remaining binding at 0.3 µM (PIM2) was 80%, the remaining binding at 0.3 µM (MST1R) was 95% and the remaining binding at 0.3 µM (KIT(V559D,T670I)) was 100%. For the same compound, the remaining binding at 0.3 µM (CDK2) was 98%, the remaining binding at 0.3 µM (SRPK1) was 100% and the remaining binding at 0.3 µM (CLK3) was 100%. For the same compound, the remaining binding at 0.3 µM (CSNK2A1) was 61%, the remaining binding at 0.3 µM (CSNK1G1) was 79% and the remaining binding at 0.3 µM (MELK) was 71%. For the same compound, the remaining binding at 0.3 µM (MEK5) was 100%.
